Source: paper PMC10382584, “Macrocyclization of linear molecules by deep learning to facilitate macrocyclic drug candidates discovery” (Nature Communications, 2023)

Tests used:
Assay in all cases: biochemical
Parameters in all cases: DiscoveRx KINOMEscan competition binding, percent of DMSO control signal at 100 nM
Details in all cases: read-out: Fig. 4a / Percent Control / Compound 1; percent of DMSO control, competition binding
[1] = target: T1, ABL1(H396P)-nonphosphorylated (Homo sapiens, UniProt P00519, H396P)
T1 construct: nonphosphorylated
Protocol: (§1) The kinase selectivity profile was performed by using the DiscoveRx KINOMEscan platform. […] Test compounds were prepared as 40× stocks in 100% DMSO and directly diluted into the assay. The results were defined as a percentage of signal between the negative (DMSO, 100% control) and the positive (control compound, 0% control) control, which was calculated as follows: percent control = [(test compound signal − positive control signal)/(negative control signal − positive control signal)] × 100.

[2] = target: T2, ABL1(T315I)-phosphorylated (Homo sapiens, UniProt P00519, T315I)
T2 construct: phosphorylated
Protocol: as §1

[3] = target: T3, ABL1(Y253F)-phosphorylated (Homo sapiens, UniProt P00519, Y253F)
T3 construct: phosphorylated
Protocol: as §1

ALK(L1196M) = ALK(L1196M) (Homo sapiens, UniProt Q9UM73, L1196M)
Sequence of ALK(L1196M) (Q9UM73 whole entry L1196M): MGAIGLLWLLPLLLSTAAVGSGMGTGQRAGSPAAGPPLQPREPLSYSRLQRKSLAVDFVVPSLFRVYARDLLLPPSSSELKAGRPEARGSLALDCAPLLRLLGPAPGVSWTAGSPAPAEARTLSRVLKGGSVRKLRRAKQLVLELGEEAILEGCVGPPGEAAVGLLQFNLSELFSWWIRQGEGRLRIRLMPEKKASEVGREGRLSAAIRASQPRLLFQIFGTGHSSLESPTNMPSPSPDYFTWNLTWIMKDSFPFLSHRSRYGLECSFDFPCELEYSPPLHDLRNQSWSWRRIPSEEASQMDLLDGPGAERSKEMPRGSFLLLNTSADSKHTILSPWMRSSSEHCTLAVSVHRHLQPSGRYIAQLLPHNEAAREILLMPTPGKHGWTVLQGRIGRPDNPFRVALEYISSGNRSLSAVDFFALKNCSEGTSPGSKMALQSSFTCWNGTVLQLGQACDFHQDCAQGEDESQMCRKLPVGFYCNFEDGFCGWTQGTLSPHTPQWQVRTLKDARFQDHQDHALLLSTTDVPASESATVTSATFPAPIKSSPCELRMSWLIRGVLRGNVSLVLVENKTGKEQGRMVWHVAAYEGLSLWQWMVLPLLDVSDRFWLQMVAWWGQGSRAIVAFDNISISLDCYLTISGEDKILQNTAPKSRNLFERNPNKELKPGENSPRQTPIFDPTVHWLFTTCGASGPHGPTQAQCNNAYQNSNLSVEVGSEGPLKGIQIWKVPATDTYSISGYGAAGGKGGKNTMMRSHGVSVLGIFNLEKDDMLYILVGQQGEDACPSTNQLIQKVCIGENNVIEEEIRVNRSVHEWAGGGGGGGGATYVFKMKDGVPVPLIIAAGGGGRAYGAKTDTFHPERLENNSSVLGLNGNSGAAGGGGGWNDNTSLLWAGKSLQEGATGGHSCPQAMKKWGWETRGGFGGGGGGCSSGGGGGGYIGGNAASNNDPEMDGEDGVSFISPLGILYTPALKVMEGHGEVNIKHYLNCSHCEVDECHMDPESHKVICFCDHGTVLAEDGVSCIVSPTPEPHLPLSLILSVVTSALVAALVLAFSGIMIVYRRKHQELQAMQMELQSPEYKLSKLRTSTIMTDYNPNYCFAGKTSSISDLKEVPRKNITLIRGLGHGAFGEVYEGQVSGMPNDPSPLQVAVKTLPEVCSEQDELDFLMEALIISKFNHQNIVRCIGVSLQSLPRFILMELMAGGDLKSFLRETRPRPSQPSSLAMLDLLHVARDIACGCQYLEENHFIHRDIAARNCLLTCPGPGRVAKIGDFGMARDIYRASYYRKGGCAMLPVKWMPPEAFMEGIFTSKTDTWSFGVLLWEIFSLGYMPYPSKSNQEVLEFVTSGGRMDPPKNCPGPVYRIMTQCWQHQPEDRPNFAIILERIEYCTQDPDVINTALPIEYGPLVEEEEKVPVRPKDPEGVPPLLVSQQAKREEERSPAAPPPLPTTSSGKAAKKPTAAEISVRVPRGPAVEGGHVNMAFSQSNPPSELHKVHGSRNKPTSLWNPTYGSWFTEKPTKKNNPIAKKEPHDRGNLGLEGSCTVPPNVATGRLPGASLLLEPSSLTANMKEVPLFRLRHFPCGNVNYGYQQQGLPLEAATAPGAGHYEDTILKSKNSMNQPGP
Protocol: as §1

BMPR1A = BMPR1A (Homo sapiens, UniProt P36894)
Sequence of BMPR1A (P36894 whole entry): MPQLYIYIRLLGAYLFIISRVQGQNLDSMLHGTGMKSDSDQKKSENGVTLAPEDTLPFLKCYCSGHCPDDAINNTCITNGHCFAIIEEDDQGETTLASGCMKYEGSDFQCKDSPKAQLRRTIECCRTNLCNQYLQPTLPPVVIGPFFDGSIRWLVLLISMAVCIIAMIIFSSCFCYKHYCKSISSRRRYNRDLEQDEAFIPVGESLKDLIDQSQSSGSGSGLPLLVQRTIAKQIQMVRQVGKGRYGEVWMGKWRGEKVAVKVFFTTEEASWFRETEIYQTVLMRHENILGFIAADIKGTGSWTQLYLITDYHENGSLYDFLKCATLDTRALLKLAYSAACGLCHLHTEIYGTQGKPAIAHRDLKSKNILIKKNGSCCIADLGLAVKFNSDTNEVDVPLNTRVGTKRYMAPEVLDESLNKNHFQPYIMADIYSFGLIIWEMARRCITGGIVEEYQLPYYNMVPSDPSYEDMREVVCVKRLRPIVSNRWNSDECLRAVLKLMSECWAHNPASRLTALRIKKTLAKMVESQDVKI
Protocol: as §1

BUB1 = BUB1 (Homo sapiens, UniProt O43683)
Protocol: as §1

CSF1R-autoinhibited = CSF1R-autoinhibited (Homo sapiens, UniProt P07333)
Protocol: as §1

EGFR(L858R) = EGFR(L858R) (Homo sapiens, UniProt P00533, L858R)
Protocol: as §1

[4] = target: T4, JAK1(JH1domain-catalytic) (Homo sapiens, UniProt P23458)
T4 construct: JH1domain-catalytic
Protocol: as §1

LIMK1 = LIMK1 (Homo sapiens, UniProt P53667)
Sequence of LIMK1 (P53667 whole entry): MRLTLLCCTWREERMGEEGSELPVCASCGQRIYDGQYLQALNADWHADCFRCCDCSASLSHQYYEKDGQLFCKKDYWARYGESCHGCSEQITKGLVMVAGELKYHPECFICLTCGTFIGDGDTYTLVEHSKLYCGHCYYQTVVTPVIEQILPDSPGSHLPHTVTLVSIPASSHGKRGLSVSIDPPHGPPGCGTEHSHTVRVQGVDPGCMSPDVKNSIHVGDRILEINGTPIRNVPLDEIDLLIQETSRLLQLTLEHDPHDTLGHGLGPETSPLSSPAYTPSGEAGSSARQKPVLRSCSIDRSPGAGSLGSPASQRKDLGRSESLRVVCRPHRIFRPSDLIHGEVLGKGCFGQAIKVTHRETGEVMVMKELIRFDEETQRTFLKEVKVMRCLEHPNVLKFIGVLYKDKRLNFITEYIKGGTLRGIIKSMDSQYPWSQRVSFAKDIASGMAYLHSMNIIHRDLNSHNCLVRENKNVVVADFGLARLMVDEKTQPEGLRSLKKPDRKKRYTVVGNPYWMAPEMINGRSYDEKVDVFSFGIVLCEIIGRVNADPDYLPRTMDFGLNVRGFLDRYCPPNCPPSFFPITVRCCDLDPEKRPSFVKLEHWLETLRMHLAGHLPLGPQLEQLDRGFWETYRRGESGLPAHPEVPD
Protocol: as §1

MAP3K1 = MAP3K1 (Homo sapiens, UniProt Q13233)
Sequence of MAP3K1 (Q13233 whole entry): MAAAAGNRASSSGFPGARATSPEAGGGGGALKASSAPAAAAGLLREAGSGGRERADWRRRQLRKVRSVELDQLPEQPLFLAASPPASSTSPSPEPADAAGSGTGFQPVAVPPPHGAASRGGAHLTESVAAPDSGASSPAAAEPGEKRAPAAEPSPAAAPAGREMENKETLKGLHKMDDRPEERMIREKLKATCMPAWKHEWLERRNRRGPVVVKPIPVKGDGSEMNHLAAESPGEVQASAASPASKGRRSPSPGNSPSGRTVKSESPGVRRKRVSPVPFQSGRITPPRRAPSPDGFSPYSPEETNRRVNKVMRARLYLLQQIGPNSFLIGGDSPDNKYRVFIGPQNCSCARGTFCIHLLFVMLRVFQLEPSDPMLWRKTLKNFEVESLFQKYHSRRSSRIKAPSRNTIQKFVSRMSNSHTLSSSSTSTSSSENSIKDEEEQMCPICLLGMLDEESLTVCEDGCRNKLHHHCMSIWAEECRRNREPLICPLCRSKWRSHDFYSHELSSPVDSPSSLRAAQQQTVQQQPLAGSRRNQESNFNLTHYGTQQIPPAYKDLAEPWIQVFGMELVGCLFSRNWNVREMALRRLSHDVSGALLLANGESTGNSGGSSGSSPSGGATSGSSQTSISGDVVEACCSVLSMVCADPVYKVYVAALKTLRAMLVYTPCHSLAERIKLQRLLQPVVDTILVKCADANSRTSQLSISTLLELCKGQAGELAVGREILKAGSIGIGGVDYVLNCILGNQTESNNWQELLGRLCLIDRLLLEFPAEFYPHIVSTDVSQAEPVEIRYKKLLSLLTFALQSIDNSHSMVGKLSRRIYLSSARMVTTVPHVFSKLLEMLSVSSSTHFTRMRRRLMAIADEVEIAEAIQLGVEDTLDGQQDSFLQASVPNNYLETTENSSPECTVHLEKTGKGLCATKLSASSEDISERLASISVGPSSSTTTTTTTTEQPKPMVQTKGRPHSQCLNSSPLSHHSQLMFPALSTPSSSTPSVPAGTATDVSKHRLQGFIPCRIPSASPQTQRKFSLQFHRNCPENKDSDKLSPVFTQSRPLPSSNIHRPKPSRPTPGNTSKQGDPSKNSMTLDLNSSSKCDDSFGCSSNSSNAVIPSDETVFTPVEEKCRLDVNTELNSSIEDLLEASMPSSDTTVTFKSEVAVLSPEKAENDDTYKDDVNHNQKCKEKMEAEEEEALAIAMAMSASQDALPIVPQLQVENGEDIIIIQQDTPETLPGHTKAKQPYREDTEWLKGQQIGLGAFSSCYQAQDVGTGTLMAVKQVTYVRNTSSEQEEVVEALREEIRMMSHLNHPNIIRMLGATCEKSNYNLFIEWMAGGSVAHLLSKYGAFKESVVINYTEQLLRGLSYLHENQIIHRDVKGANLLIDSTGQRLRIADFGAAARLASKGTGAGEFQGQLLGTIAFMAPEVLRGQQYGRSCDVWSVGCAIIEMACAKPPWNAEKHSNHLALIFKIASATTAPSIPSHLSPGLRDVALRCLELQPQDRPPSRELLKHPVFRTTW
Protocol: as §1

PIK3C2G = PIK3C2G (Homo sapiens, UniProt O75747)
Protocol: as §1

PKAC-alpha = target: T5, PKAC-alpha (Homo sapiens, UniProt P17612)
T5 construct: gene PRKACA
Protocol: as §1

RET(V804M) = RET(V804M) (Homo sapiens, UniProt P07949, V804M)
Protocol: as §1

RIPK1 = RIPK1 (Homo sapiens, UniProt Q13546)
Sequence of RIPK1 (Q13546 whole entry): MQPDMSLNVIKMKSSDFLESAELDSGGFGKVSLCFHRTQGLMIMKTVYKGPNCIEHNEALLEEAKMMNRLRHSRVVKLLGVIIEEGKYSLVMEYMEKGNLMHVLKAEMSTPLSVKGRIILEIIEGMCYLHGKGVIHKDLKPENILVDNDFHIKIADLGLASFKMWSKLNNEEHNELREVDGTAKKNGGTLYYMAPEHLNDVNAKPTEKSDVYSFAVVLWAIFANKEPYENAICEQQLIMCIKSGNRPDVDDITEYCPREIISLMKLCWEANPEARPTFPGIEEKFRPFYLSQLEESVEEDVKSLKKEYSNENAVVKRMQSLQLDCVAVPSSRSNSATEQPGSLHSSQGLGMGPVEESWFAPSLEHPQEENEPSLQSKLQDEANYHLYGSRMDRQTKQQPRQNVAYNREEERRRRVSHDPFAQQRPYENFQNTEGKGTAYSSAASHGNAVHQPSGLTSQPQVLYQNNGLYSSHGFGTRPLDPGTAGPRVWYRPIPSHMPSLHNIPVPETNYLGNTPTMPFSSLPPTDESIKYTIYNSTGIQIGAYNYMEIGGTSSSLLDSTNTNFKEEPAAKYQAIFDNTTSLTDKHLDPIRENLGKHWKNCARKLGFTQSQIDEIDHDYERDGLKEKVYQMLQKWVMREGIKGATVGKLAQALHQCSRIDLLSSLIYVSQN
Protocol: as §1

[5] = target: T6, RPS6KA5(Kin.Dom.2-C-terminal) (Homo sapiens, UniProt O75582)
T6 construct: Kin.Dom.2-C-terminal
Protocol: as §1

[6] = target: T7, RSK4(Kin.Dom.2-C-terminal) (Homo sapiens, UniProt Q9UK32)
T7 construct: gene RPS6KA6; Kin.Dom.2-C-terminal
Protocol: as §1

SRC = SRC (Homo sapiens, UniProt P12931)
Protocol: as §1

TRKA = target: T8, TRKA (Homo sapiens, UniProt P04629)
T8 construct: gene NTRK1
Protocol: as §1
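Note: KINOMEscan kinase panel binding assay, signal normalized between DMSO as 100% and a positive control compound as 0%.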

With `Cc1cnc2nc1Nc1cccc(c1)COCc1cc(ccc1OCCN1CCCC1)N2` [Compound 1] the remaining binding at 0.1 µM [1] was 37%, the remaining binding at 0.1 µM [2] was 49% and the remaining binding at 0.1 µM [3] was 64%. For the same molecule, the remaining binding at 0.1 µM (ALK(L1196M)) was 60%, the remaining binding at 0.1 µM (BMPR1A) was 97% and the remaining binding at 0.1 µM (BUB1) was 82%. It also gave a remaining binding at 0.1 µM (CSF1R-autoinhibited) of 54%, a remaining binding at 0.1 µM (EGFR(L858R)) of 73% and a remaining binding at 0.1 µM [4] of 32%. For the same molecule, the remaining binding at 0.1 µM (LIMK1) was 88%, the remaining binding at 0.1 µM (MAP3K1) was 79% and the remaining binding at 0.1 µM (PIK3C2G) was 80%. For the same molecule, the remaining binding at 0.1 µM (PKAC-alpha) was 99%, the remaining binding at 0.1 µM (RET(V804M)) was 80% and the remaining binding at 0.1 µM (RIPK1) was 93%. For the same molecule, the remaining binding at 0.1 µM [5] was 100%, the remaining binding at 0.1 µM [6] was 96% and the remaining binding at 0.1 µM (SRC) was 75%. For the same molecule, the remaining binding at 0.1 µM (TRKA) was 26%.
